{"source": "patent US10294202B2", "about": "“Pyrrolidinones as herbicides” (FMC Corporation, priority 2013, dated 2019)", "key": {"[1]": {"tested_on": "galium", "assay": "Test C pre-/postemergence herbicide test", "type": "in vivo, Galium aparine", "details": "Preemergence", "procedure,_shortened": "(§1)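 Pre-emergence: seeds sown in loam/sand blend and treated with compound in surfactant-containing solvent. Post-emergence: plants at 2–18 cm (1- to 4-leaf stage) in peat-based medium sprayed with the same formulation. Visual rating versus controls after 13–15 days in greenhouse, scale 0 (no effect) to 100 (complete control).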"}, "[2]": {"tested_on": "rice", "assay": "Test B flooded paddy test", "type": "in vivo, Oryza sativa", "details": "1000 g ai/ha, Flood; scale of 0 to 100 where 0 is no effect and 100 is complete control", "procedure,_shortened": "(§2)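 Paddy-water application at a 3 cm flood, young plants having two leaves. Water level maintained; greenhouse, 13–15 days; visual 0–100 control rating.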"}, "[3]": {"tested_on": "lambsquarters", "assay": "Test C pre-/postemergence herbicide test", "type": "in vivo, Chenopodium album", "details": "Preemergence", "procedure,_shortened": "as §1"}, "[4]": {"tested_on": "crabgrass, large", "assay": "Test C pre-/postemergence herbicide test", "type": "in vivo, Digitaria sanguinalis", "details": "Preemergence", "procedure,_shortened": "as §1"}, "[5]": {"tested_on": "barnyardgrass", "assay": "Test A pre-/postemergence herbicide test", "type": "in vivo, Echinochloa crus-galli", "procedure,_shortened": "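Seeds in loam–sand blend received preemergence directed soil spray; separately, plants 2–10 cm at one- to two-leaf stage received postemergence spray, both with test chemicals in non-phytotoxic solvent with surfactant. After ~10 days in greenhouse, injury rated visually against untreated controls, 0 (no effect) to 100 (complete control).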"}, "[6]": {"tested_on": "corn", "assay": "Test C pre-/postemergence herbicide test", "type": "in vivo, Zea mays", "details": "Preemergence", "procedure,_shortened": "as §1"}, "[7]": {"tested_on": "pigweed", "assay": "Test C pre-/postemergence herbicide test", "type": "in vivo, Amaranthus retroflexus", "details": "Preemergence", "procedure,_shortened": "as §1"}, "[8]": {"tested_on": "blackgrass", "assay": "Test C pre-/postemergence herbicide test", "type": "in vivo, Alopecurus myosuroides", "details": "Preemergence", "procedure,_shortened": "as §1"}, "[9]": {"tested_on": "foxtail, giant", "assay": "Test C pre-/postemergence herbicide test", "type": "in vivo, Setaria faberii", "details": "Preemergence", "procedure,_shortened": "as §1"}, "[10]": {"tested_on": "barnyardgrass", "assay": "Test B flooded paddy test", "type": "in vivo, Echinochloa crus-galli", "details": "1000 g ai/ha, Flood; scale of 0 to 100 where 0 is no effect and 100 is complete control", "procedure,_shortened": "as §2"}, "[11]": {"tested_on": "velvetleaf", "assay": "Test C pre-/postemergence herbicide test", "type": "in vivo, Abutilon theophrasti", "details": "Preemergence", "procedure,_shortened": "as §1"}, "[12]": {"details": "31 g ai/ha, scale 0 to 100, 0 is no effect and 100 is complete control"}, "[13]": {"details": "62 g ai/ha, scale 0 to 100 (0 no effect, 100 complete control)"}}, "data": [{"molecule": "O=C1NCC(c2cccc(C(F)(F)F)c2)C1C(=O)Nc1ccc(F)c(F)c1F", "note": "(centres unmarked) [Compound 345]", "values": [{"measurement": "Galium plant response rating", "setting": "[1]; [12]", "value": 20}, {"measurement": "Galium plant response rating", "setting": "[1]; [13]", "value": 90}, {"measurement": "Plant response rating, Galium", "setting": "[1]; 125 g ai/ha, scale 0 to 100", "value": 90}, {"measurement": "Plant response rating (scale of 0 to 100), Galium", "setting": "[1]; 250 g ai/ha", "value": 85}, {"measurement": "Plant response rating, Rice", "setting": "[2]", "value": 0}, {"measurement": "Lambsquarters plant response rating", "setting": "[3]; [12]", "value": 100}, {"measurement": "Lambsquarters plant response rating", "setting": "[3]; [13]", "value": 75}, {"measurement": "Plant response rating, Lambsquarters", "setting": "[3]; 125 g ai/ha, scale 0 to 100", "value": 85}, {"measurement": "Plant response rating (scale of 0 to 100), Lambsquarters", "setting": "[3]; 250 g ai/ha", "value": 85}, {"measurement": "Crabgrass, Large plant response rating", "setting": "[4]; [12]", "value": 95}, {"measurement": "Crabgrass, Large plant response rating", "setting": "[4]; [13]", "value": 98}, {"measurement": "Plant response rating, Crabgrass, Large", "setting": "[4]; 125 g ai/ha, scale 0 to 100", "value": 95}, {"measurement": "Plant response rating (scale of 0 to 100), Crabgrass, Large", "setting": "[4]; 250 g ai/ha", "value": 98}, {"measurement": "Plant response rating, Barnyardgrass", "setting": "[5]; Postemergence, 125 g ai/ha, visual rating on 0 to 100 scale (0 no effect, 100 complete control), approx. 10 days", "value": 70}, {"measurement": "Plant response rating, Barnyardgrass", "setting": "[5]; Postemergence, 500 g ai/ha, 0 to 100 scale (0 no effect, 100 complete control)", "value": 90}, {"measurement": "Plant response rating, Barnyardgrass", "setting": "[5]; Preemergence, 125 g ai/ha, 0 to 100 scale where 0 is no effect and 100 is complete control", "value": 80}, {"measurement": "Barnyardgrass plant response rating", "setting": "[5]; Preemergence, 500 g ai/ha, visual rating on 0 to 100 scale (0 no effect, 100 complete control)", "value": 90}, {"measurement": "Corn plant response rating", "setting": "[6]; [12]", "value": 40}, {"measurement": "Corn plant response rating", "setting": "[6]; [13]", "value": 35}, {"measurement": "Plant response rating, Corn", "setting": "[6]; 125 g ai/ha, scale 0 to 100", "value": 65}, {"measurement": "Plant response rating (scale of 0 to 100), Corn", "setting": "[6]; 250 g ai/ha", "value": 85}, {"measurement": "Pigweed plant response rating", "setting": "[7]; [12]", "value": 30}, {"measurement": "Pigweed plant response rating", "setting": "[7]; [13]", "value": 30}, {"measurement": "Plant response rating, Pigweed", "setting": "[7]; 125 g ai/ha, scale 0 to 100", "value": 65}, {"measurement": "Blackgrass plant response rating", "setting": "[8]; [12]", "value": 50}, {"measurement": "Blackgrass plant response rating", "setting": "[8]; [13]", "value": 50}, {"measurement": "Plant response rating, Blackgrass", "setting": "[8]; 125 g ai/ha, scale 0 to 100", "value": 90}, {"measurement": "Plant response rating (scale of 0 to 100), Blackgrass", "setting": "[8]; 250 g ai/ha", "value": 90}, {"measurement": "Foxtail, Giant plant response rating", "setting": "[9]; [12]", "value": 85}, {"measurement": "Foxtail, Giant plant response rating", "setting": "[9]; [13]", "value": 90}, {"measurement": "Plant response rating, Foxtail, Giant", "setting": "[9]; 125 g ai/ha, scale 0 to 100", "value": 95}, {"measurement": "Plant response rating (scale of 0 to 100), Foxtail, Giant", "setting": "[9]; 250 g ai/ha", "value": 98}, {"measurement": "Plant response rating, Barnyardgrass", "setting": "[10]", "value": 0}, {"measurement": "Velvetleaf plant response rating", "setting": "[11]; [13]", "value": 0}, {"measurement": "Plant response rating, Velvetleaf", "setting": "[11]; 125 g ai/ha, scale 0 to 100", "value": 25}]}]}
